Test results taken from US20130142883A1, “MEDICAL FOOD FOR THE DIETARY MANAGEMENT OF DEPRESSION AND ANXIETY AND METHODS THEREOF” (priority 2011, published 2013).

Assays:
C57BI/6 mice = test: Dark-light box test after 14 days of drinking water; format: in vivo; settings: three-months-old male mice; water ad libitum 14 days; Diazepam 2.5 mg/kg bolus 30 min prior the test; mean±SEM
Description: Bolus injection of anxiolytic drug Diazepam (2.5 mg/kg, 30 min prior the test) was used as a positive reference control.

C57BI/6J mice = test: Sucrose preference test (anhedonia) under chronic stress; format: in vivo; settings: young adult male mice; water one week before and during ten days of chronic stress; 10th day; Citalopram 15 mg/kg per day per os; mean±SEM
Description: Citalopram 15 mg/kg per day per os was used as the reference antidepressant drug. There was no difference between groups at baseline. At 10th day of the stress procedure, animals were tested on the sucrose preference, common test for assessment of anhedonia. Results are presented in Table 6 as mean±SEM percent of sucrose preference.

| Structure (SMILES) | Time (time spent in the lit box) (C57BI/6 mice) [s] | Sucrose preference (C57BI/6J mice) [%] |
| --- | --- | --- |
| CN1C(=O)CN=C(c2ccccc2)c2cc(Cl)ccc21 [Diazepam] | 155.2 ± 7.8 | – |
| CN(C)CCCC1(c2ccc(F)cc2)OCc2cc(C#N)ccc21 (centres unmarked) [Citalopram] | – | 70.0 ± 3.0 |
